Assay results published in patent US20070148136A1, “Methods of using ammonia oxidizing bacteria” (priority 2003, published 2007).
“Also recorded” adds a separate entry of the source. Read-outs that look alike come from different tables or passages of the source.

What was measured:
N, multiformis = settings: cited from earlier work
N. mobilis = settings: cited from earlier work
N. europaea = settings: cited from earlier work
[1] = test system: Nitrosospira sp. strain AV; settings: cited from earlier work
ammonia monooxygenase = target: T1, ammonia monooxygenase (Nitrosomonas europaea, UniProt Q04507+Q04508); settings: cited from earlier work
T1 construct: endogenous in cells; host or cells: autotrophic ammonia oxidizing bacteria (AAOB), mixed and unspecified, e.g. in waste water
T1 sequence (Q04507 1-276): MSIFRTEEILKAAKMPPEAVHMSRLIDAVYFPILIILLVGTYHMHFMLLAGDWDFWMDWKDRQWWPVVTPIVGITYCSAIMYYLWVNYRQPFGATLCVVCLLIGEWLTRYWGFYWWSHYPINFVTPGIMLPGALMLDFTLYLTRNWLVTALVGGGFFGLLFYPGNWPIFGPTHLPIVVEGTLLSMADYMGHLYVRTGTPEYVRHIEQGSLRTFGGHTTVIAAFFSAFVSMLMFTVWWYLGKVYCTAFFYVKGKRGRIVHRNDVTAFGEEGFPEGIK
T1 sequence (Q04508 26-420): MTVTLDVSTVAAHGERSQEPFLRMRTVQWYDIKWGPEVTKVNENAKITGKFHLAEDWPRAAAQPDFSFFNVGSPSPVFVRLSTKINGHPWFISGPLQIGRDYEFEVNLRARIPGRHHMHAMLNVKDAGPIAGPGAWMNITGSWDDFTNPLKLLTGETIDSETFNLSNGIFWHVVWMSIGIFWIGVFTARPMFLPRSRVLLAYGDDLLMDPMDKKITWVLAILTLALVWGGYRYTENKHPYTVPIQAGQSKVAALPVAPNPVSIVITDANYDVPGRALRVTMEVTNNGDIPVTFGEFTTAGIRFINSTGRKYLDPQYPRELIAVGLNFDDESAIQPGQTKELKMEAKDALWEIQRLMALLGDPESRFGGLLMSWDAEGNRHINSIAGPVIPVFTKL

[2] = test system: local brachial artery vasodilatation; test: Local brachial artery vasodilatation after bolus infusion (Rassaf et al.); format: in vivo, human; settings: for relative effectiveness (intravenous NO : SNP : GSNO): ratio, intravenous NO = 1
Experimental: SNP has also been compared to intravenous NO, where intravenous NO, SNP, and S—NO-glutathione (GSNO) were shown by Rassaf et al. to have relative “maximally effective doses” administered as bolus infusions in local brachial artery vasodilatation of 6 μM, 34 nM, and 5 nM respectively. (Rassaf et al., Evidence for in vivo transport of bioactive nitric oxide in human plasma, J. Clin. Invest. 109:1241-1248 (2002).) This puts the relative effectiveness of intravenous NO, SNP, and GSNO at 1:176:1200. There were significant differences in the temporal course of vasodilatation induced through the above treatments. […] Thus GSNO is roughly 7 times more “effective” at getting “NO active species” to peripheral GC than is SNP. Presumably then, a dose of about 0.1 μM/kg/hr of GSNO would have a vasodilatation effect equivalent to 0.75 μM/kg/hr SNP. The basal nitrate excretion is about 1 μM/kg/hr. If we assume that the vasodilatory effects of 0.75 μ/kg/hr SNP are on the “same order” as the indigenous NO already produced, then the 0.1 μkg/hr GSNO represents an increase in “effective NO” of […] over basal levels.

[3] = test system: local brachial artery vasodilatation; settings: bolus infusion, cited from earlier work
Human Mast Cell Adhesion = settings: cited from earlier work
NOS [4] = settings: chronic inhibition of NOS; cited from earlier work
NOS [5] = settings: chronic inhibition of NOS; cited from earlier work; remark: listed apart in the source
NOS [6] = settings: horse, cited from earlier work
NO synthesis = settings: in vivo; cited from earlier work
NOS [7] = settings: in vivo; cited from earlier work
[8] = hyperbaric O2; cited from earlier work
[9] = type 2 diabetics; cited from earlier work
guanylyl cyclase (GC) = target: T2, guanylyl cyclase (GC) (Homo sapiens, UniProt Q02153); settings: read-out: apparent EC50 for guanylyl cyclase activation, cited from earlier work
T2 construct: Soluble Guanylyl Cyclase, in Intact Cerebellar Cells; host or cells: intact cerebellar cells (endogenous)
T2 sequence (Q02153 1-619): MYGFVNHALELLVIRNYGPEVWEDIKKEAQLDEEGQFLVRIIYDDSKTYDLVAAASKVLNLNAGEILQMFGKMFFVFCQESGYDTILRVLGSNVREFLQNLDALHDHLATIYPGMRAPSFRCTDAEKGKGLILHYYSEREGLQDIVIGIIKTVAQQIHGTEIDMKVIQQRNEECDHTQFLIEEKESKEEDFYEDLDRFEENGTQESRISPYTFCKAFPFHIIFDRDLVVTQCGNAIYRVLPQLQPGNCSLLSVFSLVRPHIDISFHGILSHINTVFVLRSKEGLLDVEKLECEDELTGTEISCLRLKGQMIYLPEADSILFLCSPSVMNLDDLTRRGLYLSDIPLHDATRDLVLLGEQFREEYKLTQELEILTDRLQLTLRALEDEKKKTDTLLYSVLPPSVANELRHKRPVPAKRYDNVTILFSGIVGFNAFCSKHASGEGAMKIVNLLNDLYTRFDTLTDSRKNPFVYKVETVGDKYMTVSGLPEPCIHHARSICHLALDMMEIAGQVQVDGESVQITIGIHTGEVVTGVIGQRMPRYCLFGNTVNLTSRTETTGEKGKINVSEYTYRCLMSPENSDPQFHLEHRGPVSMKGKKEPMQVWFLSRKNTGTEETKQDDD
T2 sequence (Q02108 1-690 partner): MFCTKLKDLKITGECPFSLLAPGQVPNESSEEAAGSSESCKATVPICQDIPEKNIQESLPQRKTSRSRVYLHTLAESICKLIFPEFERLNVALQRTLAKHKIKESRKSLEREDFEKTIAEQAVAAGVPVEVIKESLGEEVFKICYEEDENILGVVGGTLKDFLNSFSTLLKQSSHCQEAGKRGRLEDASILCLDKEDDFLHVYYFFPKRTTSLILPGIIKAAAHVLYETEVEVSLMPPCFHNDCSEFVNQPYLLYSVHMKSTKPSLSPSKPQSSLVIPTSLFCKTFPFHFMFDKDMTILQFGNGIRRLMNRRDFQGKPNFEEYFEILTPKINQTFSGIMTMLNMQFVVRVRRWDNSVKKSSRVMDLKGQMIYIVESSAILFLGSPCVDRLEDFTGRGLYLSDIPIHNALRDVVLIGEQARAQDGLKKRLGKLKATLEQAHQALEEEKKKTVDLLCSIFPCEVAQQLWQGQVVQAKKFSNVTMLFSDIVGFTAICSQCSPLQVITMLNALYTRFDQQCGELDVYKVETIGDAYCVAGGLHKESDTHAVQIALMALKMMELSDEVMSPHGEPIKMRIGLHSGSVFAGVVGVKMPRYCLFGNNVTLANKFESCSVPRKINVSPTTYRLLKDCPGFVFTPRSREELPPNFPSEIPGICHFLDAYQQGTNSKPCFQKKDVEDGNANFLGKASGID

[10] = inhaled NO at 80 ppm in >90% O2 (16 μM/min=14 μM/kg/hr); cited from earlier work
[11] = compared with estrogen; cited from earlier work
AAOB = settings: cited from earlier work
[12] = test system: murine macrophage cells (RAW264); settings: CP 2 μM/L in Krebs-Ringer-phosphate, absence of hemoglobin; cited from earlier work
[13] = physiologic concentrations of CP; cited from earlier work

For `CCCCCCCCCCC(C)c1ccc(S(=O)(=O)O)cc1` (centres unmarked) [4-(2-dodecyl)benzenesulfonic acid], the “50% inhibitory concentration (IC50)” value (N, multiformis) is listed as 1 µg/mL (ppm), the “50% inhibitory concentration (IC50)” value (N. mobilis) is listed as 3 µg/mL (ppm) and the “50% inhibitory concentration (IC50)” value (N. europaea) is listed as 5 µg/mL (ppm). The “50% inhibitory concentration (IC50)” value [1] was 1 µg/mL (ppm).

In the case of `C=CCNC(N)=S` [Allylthiourea], the “inhibition of ammonia monooxygenase” value (ammonia monooxygenase) is given as “very effective at inhibiting ammonia monooxygenase”.

In the case of `N[C@@H](CCC(=O)N[C@@H](CSN=O)C(=O)NCC(=O)O)C(=O)O` [GSNO, S-nitrosoglutathione], the “effectiveness at getting NO active species to peripheral GC relative to SNP” value ([2]; GSNO versus SNP) is given as “roughly 7 times”, the “relative effectiveness (intravenous NO : SNP : GSNO)” value [2] is given as 1200 and the “maximally effective dose, local brachial artery vasodilatation” value [3] is given as 0.005 µM. For the same molecule, the mast cell adhesion (Human Mast Cell Adhesion) was “strongly down regulated”.

For `COC(=O)[C@@H](N)CCCNC(=N)N[N+](=O)[O-]` [L-NAME, N(G)-nitro-L-arginine methyl ester], the “fibrosis of heart and kidneys” value (NOS [4]) is given as “generalized fibrosis of the heart and kidneys”, the “total (pancreatic islet) NO production” value (NOS [5]) is given as “can increase NO levels at particular sites; also recorded: increases total pancreatic islet NO production” and the VCO2max (NOS [6]; L-NAME group (control 62.5)) is given as 61.0 L/min. For the same molecule, the “reduction of cardiac output” value (NOS [6]; L-NAME group) was 12%.

For `NC(=NCCC[C@H](N)C(=O)O)N[N+](=O)[O-]` [L-NNA, N-nitro-L arginine], the “reduction in basal temperature following hypoxia” value (NO synthesis) is listed as “greatly diminished” and the “wake-sleep differences in cerebral blood flow” value (NOS [7]) is listed as “abolishes wake-sleep differences in cerebral blood flow”.

In the case of `N=C(N)NCCC[C@H](N)C(=O)O` [L-arginine], the latency to seizure [8] is given as “increase the latency to seizure”, the forearm blood flow [9] is given as “increases forearm blood flow” and the insulin sensitivity [9] is given as “increases insulin sensitivity”.

For `[N]=O` [NO, nitric oxide], the “relative effectiveness (intravenous NO : SNP : GSNO)” value [2] is given as 1, the “maximally effective dose, local brachial artery vasodilatation” value ([3]; intravenous) is given as 6 µM and the EC50 (guanylyl cyclase (GC); rapid (˜100 ms) activation) is given as ~45 nM. For the same molecule, the EC50 (guanylyl cyclase (GC); slow (˜1 to 10 sec) activation) was ~20 nM and the “change in mean arterial pressure” value [10] was “no change in mean arterial pressure”.

For `O=[N+]([O-])OCC(CO[N+](=O)[O-])O[N+](=O)[O-]` [nitroglycerin], the “prevention of bone loss” value [11] is listed as “as effective as estrogen to prevent bone loss”.

For S-nitroso-N-acetylpenicilamine [SNAP], the latency to seizure [8] is given as “significantly shortens”.

In the case of linear alkylbenzene sulfonates [LAS], the “toxicity to AAOB” value (AAOB) is listed as “toxic to AAOB at ppm levels” and the “toxicity to AAOB” value (AAOB; listed as linear alkyl benzene sulfonate detergents) is listed as “killed by ppm levels”.

B1: CP: ceruloplasmin, the main Cu containing serum protein (protein, UniProt P00450 20-1065, looked up)
Ceruloplasmin: KEKHYYIGIIETTWDYASDHGEKKLISVDTEHSNIYLQNGPDRIGRLYKKALYLQYTDETFRTTIEKPVWLGFLGPIIKAETGDKVYVHLKNLASRPYTFHSHGITYYKEHEGAIYPDNTTDFQRADDKVYPGEQYTYMLLATEEQSPGEGDGNCVTRIYHSHIDAPKDIASGLIGPLIICKKDSLDKEKEKHIDREFVVMFSVVDENFSWYLEDNIKTYCSEPEKVDKDNEDFQESNRMYSVNGYTFGSLPGLSMCAEDRVKWYLFGMGNEVDVHAAFFHGQALTNKNYRIDTINLFPATLFDAYMVAQNPGEWMLSCQNLNHLKAGLQAFFQVQECNKSSSKDNIRGKHVRHYYIAAEEIIWNYAPSGIDIFTKENLTAPGSDSAVFFEQGTTRIGGSYKKLVYREYTDASFTNRKERGPEEEHLGILGPVIWAEVGDTIRVTFHNKGAYPLSIEPIGVRFNKNNEGTYYSPNYNPQSRSVPPSASHVAPTETFTYEWTVPKEVGPTNADPVCLAKMYYSAVEPTKDIFTGLIGPMKICKKGSLHANGRQKDVDKEFYLFPTVFDENESLLLEDNIRMFTTAPDQVDKEDEDFQESNKMHSMNGFMYGNQPGLTMCKGDSVVWYLFSAGNEADVHGIYFSGNTYLWRGERRDTANLFPQTSLTLHMWPDTEGTFNVECLTTDHYTGGMKQKYTVNQCRRQSEDSTFYLGERTYYIAAVEVEWDYSPQREWEKELHHLQEQNVSNAFLDKGEFYIGSKYKKVVYRQYTDSTFRVPVERKAEEEHLGILGPQLHADVGDKVKIIFKNMATRPYSIHAHGVQTESSTVTPTLPGETLTYVWKIPERSGAGTEDSACIPWAYYSTVDQVKDLYSGLIGPLIVCRRPYLKVFNPRRKLEFALLFLVFDENESWYLDDNIKTYSDHPEKVNKDDEEFIESNKMHAINGRMFGNLQGLTMHVGDEVNWYLMGMGNEIDLHTVHFHGHSFQYKHRGVYSSDVFDIFPGTYQTLEMFPRTPGIWLLHCHVTDHIHAGMETTYTVLQNEDTKSG
For B1, the “conversion of authentic NO to RSNO (recovered NAC—NO)” value [12] is given as ≤ 33% and the “increase in formation of GSNO from NO and GSH” value [13] is given as “approximately 100 times”.
